Reference: patent US20060252107A1, “Compositions and methods for diagnosing and treating retinal diseases” (Acucela, Inc., priority 2005, published 2006)

Tests used:
[1] = tested on: photoreceptor cells; test: mature retinal cell culture system with A2E as cell stressor, photoreceptor survival; format: cell-based, Porcine
Description: (§1) The retinal cell culture system may be exposed to A2E at any concentration between 1 pM and 200 μM (e.g., 1 pM, 10 pM, 100 pM, 250 pM, 500 pM, 750 pM, 1 nM, 10 nM, 50 nM, 100 nM, 250 nM, 500 nM, 750 nM, 1 μM, 2 μM, 5 μM, 7.5 μM, 10 μM, 15 μM, 20 μM, 25 μM, 40 μM, 50 μM, 75 μM, 100 μM, 120 μM, 200 μM); or 250 μM, 500 μM, or 750 μM), between 1 μM and 40 μM, or between 10 μM and 20 μM, for a period of time, for example, between 2 and 48 hours or between 12 and 36 hours. In another embodiment, the cell culture may be exposed to lower concentrations of A2E (for example, between 1 pM and 10 μM or between 1 nM and 1 μM) for longer times (such as about one week, about two weeks, or about one month (4 weeks)).
(§2) Porcine eyes are obtained from Kapowsin Meats, Inc. (Graham, Wash.). Eyes are enucleated, and muscle and tissue are cleaned away from the orbit. Eyes are cut in half along their equator and the neural retina is dissected from the […] part of the eye in buffered saline solution, according to standard methods known in the art. […]
(§3) The retinal neuronal cells are cultured for 1, 3, 6, and 8 weeks, and the cells are analyzed by immunohistochemistry at each time point. […]
(§4) Cultures are analyzed by counting rhodopsin-labeled photoreceptors and NFM-labeled ganglion cells using an Olympus 1X81 or CZX41 microscope (Olympus, Tokyo, Japan). […]

[2] = tested on: ganglion cells; test: mature retinal cell culture system with A2E as cell stressor, ganglion cell survival; format: cell-based, Porcine; settings: 20 μM A2E for 48 hours
Description: as §1, §2, §3, §4

Structure (SMILES): CC(C=CC1=C(C)CCCC1(C)C)=CC=CC(C)=Cc1cc(C=CC=C(C)C=CC2=C(C)CCCC2(C)C)cc[n+]1CCO [A2E, N-retinylidene-N-retinyl-ethanolamine]
- death of photoreceptor cells ([1]; 20 μM A2E for 48 hours, compared to photoreceptor cells not exposed to A2E): more than 90%
- effect of exposure of the retinal neuronal cell culture system to A2E ([1]; concentration and time not stated): selective killing of certain cells, particularly photoreceptor cells
- survival of ganglion cells [2]: not adversely affected
